The record followed here is ChEMBL document CHEMBL4616647, “PTP1B-Inhibiting Branched-Chain Fatty Acid Dimers from Eremophila oppositifolia subsp. angustifolia Identified by High-Resolution PTP1B Inhibition Profiling and HPLC-PDA-HRMS-SPE-NMR Analysis” (J Nat Prod, 2020).

Active and inactive are the calls of the source. The calls are words filed in the database; no cut-off is given here.

Experiment [1] has as its target T1, Tyrosine-protein phosphatase non-receptor type 1 (Homo sapiens) (UniProt P18031).
T1 sequence (whole entry): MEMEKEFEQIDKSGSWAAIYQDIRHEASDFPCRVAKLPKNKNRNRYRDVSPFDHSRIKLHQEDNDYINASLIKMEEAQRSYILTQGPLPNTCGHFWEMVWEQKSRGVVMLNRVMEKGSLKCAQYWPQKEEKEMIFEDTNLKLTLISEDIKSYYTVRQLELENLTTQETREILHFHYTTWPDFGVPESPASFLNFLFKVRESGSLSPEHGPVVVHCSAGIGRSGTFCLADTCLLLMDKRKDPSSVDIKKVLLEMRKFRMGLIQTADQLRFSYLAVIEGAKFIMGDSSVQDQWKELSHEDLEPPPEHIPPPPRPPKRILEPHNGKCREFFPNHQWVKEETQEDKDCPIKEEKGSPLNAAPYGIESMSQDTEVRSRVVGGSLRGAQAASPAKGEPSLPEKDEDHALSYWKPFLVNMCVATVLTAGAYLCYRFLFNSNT
In words: Inhibition of human recombinant PTP1B (1 to 322 residues) expressed in Escherichia coli by HPLC-PDA-HRMS-SPE-NMR analysis.

Experiment [2] addresses T2, Tyrosine-protein phosphatase non-receptor type 1 (Homo sapiens, UniProt P18031).
T2 sequence (P18031 whole entry): T1 sequence (whole entry)
The experiment is described as follows: Inhibition of human recombinant PTP1B (1 to 322 residues) expressed in Escherichia coli using pNPP as substrate preincubated for 10 mins followed by substrate addition and measured after every 30 secs for 10 mins by photometric method.

The target in experiment [3] is T2, Tyrosine-protein phosphatase non-receptor type 1. The experiment is described as follows: Inhibition of PTP1B (unknown origin) using pNPP as substrate incubated for 30 mins by photometric method.

For the compound `CCCCCCC[C@@H]1[C@@H](/C(=C/C=C/C(=O)O)COC(C)=O)[C@@H](/C=C/C(=O)O)C(COC(C)=O)=C[C@H]1CCCCCCC`, in experiment [1], the inhibition entry is “Active”. The half-inhibitory concentration (IC50) in experiment [2] is 12 µM. In the case of `CCCCCCC[C@@H]1[C@@H](/C(=C/C=C/C(=O)O)CO)[C@@H](/C=C/C(=O)O)C(COC(C)=O)=C[C@H]1CCCCCCC`, in experiment [1], the inhibition entry was “Active”. For the same compound, the IC50 in experiment [2] was found to be 30 µM. On to `CCCCCCC[C@H]1[C@H](/C(=C/C=C/C(=O)O)CO)[C@@H](/C=C/C(=O)O)C(COC(C)=O)=C[C@H]1CCCCCCC`, for which the inhibition entry in experiment [1] was “Active”. Also, in experiment [2], the IC50 turned out to be 2.4 µM.

For `CCCCCCC/C=C/C(=C/C=C/C(=O)O)COC(C)=O`, the IC50 in experiment [2] was found to be 484 µM.

Take `CCCCCCC/C=C/C(C)=C/C=C/C(=O)O`: in experiment [2], the IC50 turned out to be 73 µM. Turning to `CCCCCCC[C@@H]1[C@@H](/C(=C/C=C/C(=O)O)COC(C)=O)[C@@H](/C=C/C(=O)O)C(CO)=C[C@H]1CCCCCCC`, in experiment [1], the inhibition result was “Active”. Also, the IC50 in experiment [2] turned out to be 24 µM. Turning to `CCCCCCC/C=C/C(=C/C=C/C(=O)O)CO`, the IC50 in experiment [2] was 163 µM. In experiment [3], `CCCCCCCC/C=C\CCCCCCCCCC(=O)O` gave an IC50 of 1.4 µM. Same read-out and setting: as for `CCCCCCCCCCCCCCCCCCCC(=O)O` [ARACHIDIC ACID], the figure is 1.6 µM. For `CCCCCCC/C=C/C(=C\C=C\C(=O)O)COC(C)=O`, the IC50 in experiment [2] came to 38 µM. As for `CCCCCCC[C@H]1[C@H](/C(=C/C=C/C(=O)O)COC(C)=O)[C@@H](/C=C/C(=O)O)C(COC(C)=O)=C[C@H]1CCCCCCC`, the inhibition entry in experiment [1] is “Active”. Besides, the half-inhibitory concentration (IC50) in experiment [2] came to 12 µM. As to `CCCCCCC/C=C/C(=C/[C@H]1[C@H](C(=O)O)[C@H](CCCCCCC)C=C(COC(C)=O)[C@@H]1/C=C/C(=O)O)COC(=O)O`, the inhibition entry in experiment [1] was “Active”. In experiment [2], the 50% inhibitory concentration (IC50) amounted to 66 µM.

Compound `CCCCCC/C=C\CCCCCCCC(=O)O` [PALMITOLEIC ACID] yielded an IC50 in experiment [3] of 6.4 µM. In experiment [3], `CCCCCCCCCCCCCCCCCC(=O)O` [STEARIC ACID] displayed an IC50 of 2.3 µM. As to `C=C(/C=C/CCCCCCC)CCCC(=O)O`, in experiment [2], the IC50 is 144 µM.

Regarding `CCCCCCCCCCCCCCCC(=O)O` [PALMITIC ACID], in experiment [3], half-maximal inhibition (IC50) required 8.8 µM. The compound `CCCCCCCC/C=C\CCCCCCCC(=O)O` [OLEIC ACID] showed an IC50 in experiment [3] of 6.2 µM. On to `CCCCCCCCCCCCCCCC(=O)C1=C(O)[C@@H](CO)OC1=O`, for which the 50% inhibitory concentration (IC50) in experiment [2] came out at 7.3 µM.

In general, IC50 refers to the midpoint of a concentration-inhibition curve.
